In PubChem BioAssay AID2060492 (Molecular Pharmacology Branch, DTP, NCI, 2025):

System: 695427-040-R-J1-PDC complex spheroids, viability percent T/C
Experiment: Anticancer human tumor 695427-040-R-J1-PDC patient-derived colon adenocarcinoma cell line growth inhibition [GQUAD]
Conditions: for IC50: curve of first compound; for viability, T/C: stronger effect = lower value; active = viability on the fitted dose curve at most 10% of control; inactive = the rest
Excerpt: DNA G-quadruplex Stabilizer Agents in Combinations in Complex Spheroids
A high-throughput screen of multi-cell type tumor spheroids was designed to identify active combinations of DNA G-quadruplex stabilizer agents and targeted small molecules. Complex spheroids include a stromal component modeled by human endothelial cells (HUVEC) and fibroblasts modeled by human mesenchymal stem cells (MSCs). The concentration ranges selected for each drug and investigational agent were based upon clinically achievable concentrations if the clinical Cmax of the agent was known.
Compounds. The drugs and investigational agents: pidnarulex (CX-5461; NSC782164), APTO-253 (NSC789042), BRACO-19 (NSC847499), peposertib (NSC802822), ceralasertib (NSC780249), elimusertib (NSC800525), camonsertib (NSC841442), AZD-1390 (NSC803789), olaparib (NSC753686), talazoparib (NSC767125), ART-558 (NSC835418), sotorasib (NSC818433), MRTX-1133 (NSC836407), SN-38 (NSC673596), topotecan (NSC609699), etoposide (NSC141540), doxorubicin (NSC123127), gemcitabine (NSC613327), 5-fluorouracil (NSC19893), paclitaxel (NSC125973), vemurafenib (NSC761431), panobinostat (NSC761190), R-306465 (JNJ-16241199; NSC773264), adavosertib (NSC754352), TP-3654 (NSC805149), carboplatin (NSC241240), KSQ-4279 (NSC840948), and staurosporine (NSC755774) were obtained from the National Cancer Institute (NCI) Developmental Therapeutics Program Chemical Repository (34). The FDA-approved anticancer drug set is available from the NCI Developmental Therapeutics Program. […] The stock solutions were prepared in dimethyl sulfoxide (DMSO, Sigma-Aldrich, St. Louis, MO, cat. D2650) at 800-fold the tested concentration and stored at -70 degrees C prior to their use. All drugs and investigational agents were tested over a range starting from a high concentration at or near the clinical Cmax and decreasing in half-log increments. If the clinical Cmax for an agent had not been determined, the highest concentration tested was 10 microM.
2.3 Cell Culture. All cells were maintained in an incubator at 37 degrees C and 5% CO2 with 95% humidity. The PDC lines were cultured according to standard operating procedures established by the NCI PDMR. All PDCs were thawed and cultured in Matrigel-coated flasks prepared with a working solution of 1X Ham's F-12 nutrient mix, without supplementation (Invitrogen, cat. 11765054), 100 U/mL penicillin-streptomycin (Invitrogen, cat. 15140122), and 2.5% Matrigel (Corning Inc., cat. 354248) for the first three passages. The 857933-349-R-J2-PDC line was cultured in 6C/Colon 1B media, which includes advanced DMEM/F-12 (Thermo Fisher Scientific, cat. 12634028), 10 mM HEPES (Thermo Fisher Scientific, cat. 15630080), 1X GlutaMAX supplement (Thermo Fisher Scientific, cat. 35050061), 0.1 mg/mL primocin (InvivoGen, cat. ant-pm-2), 10% defined fetal bovine serum, heat inactivated (HyClone Laboratories Inc., cat. SH30070.03HI), 50% L-WRN conditioned media (ATCC, cat. CRL-3276), 1.25 mM N-Acetyl-L-cysteine (Sigma-Aldrich, cat. A9165), 10 mM nicotinamide (Sigma-Aldrich, cat. N0636), 1X B-27 supplement (Thermo Fisher Scientific, cat. 17504044), 1X N-2 supplement (Thermo Fisher Scientific, cat. 17502048), 10 microM Y-27632 dihydrochloride (Tocris Bioscience, cat. 1254), and 50 ng/mL human EGF recombinant protein (Thermo Fisher Scientific, cat. PHG0311). The 485176-168-R4-J1-PDC line was cultured in Panc media, which includes all 6C/Colon 1B media components plus 100 ng/mL human FGF-10 (Thermo Fisher Scientific, cat. 100-26), 500 nM SB-431542 (Selleckchem, cat. S1067), and gastrin (Tocris, cat. 3006).
[…]

[1] = second compound 0.0316 µM, first compound 0.0316 µM
[2] = second compound 0.0316 µM, first compound 0.1 µM
[3] = second compound 0.0316 µM, first compound 0.316 µM
[4] = second compound 0.0316 µM, first compound 1 µM
[5] = second compound 0.0316 µM, first compound 3.16 µM
[6] = second compound 0.0316 µM, first compound 10 µM
[7] = second compound 0.1 µM, first compound 0.0316 µM
[8] = second compound 0.1 µM, first compound 0.1 µM
[9] = second compound 0.1 µM, first compound 0.316 µM
[10] = second compound 0.1 µM, first compound 1 µM
[11] = second compound 0.1 µM, first compound 3.16 µM
[12] = second compound 0.1 µM, first compound 10 µM
[13] = second compound 0.316 µM, first compound 0.0316 µM
[14] = second compound 0.316 µM, first compound 0.1 µM
[15] = second compound 0.316 µM, first compound 0.316 µM
[16] = second compound 0.316 µM, first compound 1 µM
[17] = second compound 0.316 µM, first compound 3.16 µM
[18] = second compound 0.316 µM, first compound 10 µM
[19] = second compound 1 µM, first compound 0.0316 µM
[20] = second compound 1 µM, first compound 0.1 µM
[21] = second compound 1 µM, first compound 0.316 µM
[22] = second compound 1 µM, first compound 1 µM
[23] = second compound 1 µM, first compound 3.16 µM
[24] = second compound 1 µM, first compound 10 µM
[25] = second compound 3.16 µM, first compound 0.0316 µM
[26] = second compound 3.16 µM, first compound 0.1 µM
[27] = second compound 3.16 µM, first compound 0.316 µM
[28] = second compound 3.16 µM, first compound 1 µM
[29] = second compound 3.16 µM, first compound 3.16 µM
[30] = second compound 3.16 µM, first compound 10 µM
[31] = second compound 10 µM, first compound 0.0316 µM
[32] = second compound 10 µM, first compound 0.1 µM
[33] = second compound 10 µM, first compound 0.316 µM
[34] = second compound 10 µM, first compound 1 µM
[35] = second compound 10 µM, first compound 3.16 µM
[36] = second compound 10 µM, first compound 10 µM
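Also: spheroids exposed to compounds for seven days before readout.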

COc1ncnc(C2CC2)c1-c1ncc2cnn(Cc3ccc(-c4nc(C(F)(F)F)cn4C(C)C)cc3)c2n1 + Cc1cnc(CNC(=O)c2c(=O)c3ccc(N4CCCN(C)CC4)nc3n3c2sc2ccccc23)cn1
< 0.0316 µM: IC50 (second compound 3.16 µM) | IC50 (second compound 10 µM)
> 10 µM: IC50 (second compound 0.0316 µM) | IC50 (second compound 0.1 µM) | IC50 (second compound 0.316 µM) | IC50 (second compound 1 µM)
inactive: viability, T/C [1] 104% | viability, T/C [2] 75.9% | viability, T/C [3] 80.3% | viability, T/C [4] 62.4% | viability, T/C [5] 83.7% | viability, T/C [6] 75.6% | viability, T/C [7] 90.4% | viability, T/C [8] 63.2% | viability, T/C [9] 71.9% | viability, T/C [10] 81.4% | viability, T/C [11] 72.1% | viability, T/C [12] 79.7% | viability, T/C [13] 66.3% | viability, T/C [14] 67.9% | viability, T/C [15] 58.5% | viability, T/C [16] 65.2% | viability, T/C [17] 62.8% | viability, T/C [18] 69.2% | viability, T/C [19] 56.1% | viability, T/C [20] 58.1% | viability, T/C [21] 70% | viability, T/C [22] 64.5% | viability, T/C [23] 68.4% | viability, T/C [24] 73.9% | viability, T/C [25] 34.3% | viability, T/C [26] 37.7% | viability, T/C [27] 42.8% | viability, T/C [28] 43% | viability, T/C [29] 53.2% | viability, T/C [30] 45.8% | viability, T/C [31] 18.6% | viability, T/C [32] 31.1% | viability, T/C [33] 43.1% | viability, T/C [34] 29.9% | viability, T/C [35] 34.6% | viability, T/C [36] 24.1%

Cc1cccc(N(C)C(=O)C2C(O)CCN2c2nc(C)cc(C(F)(F)F)c2C#N)c1 (centres undefined) + Cc1cnc(CNC(=O)c2c(=O)c3ccc(N4CCCN(C)CC4)nc3n3c2sc2ccccc23)cn1
inactive: viability, T/C [1] 110% | viability, T/C [2] 92.5% | viability, T/C [3] 76.6% | viability, T/C [4] 78.7% | viability, T/C [5] 87.5% | viability, T/C [6] 62.9% | viability, T/C [7] 87% | viability, T/C [8] 80% | viability, T/C [9] 102% | viability, T/C [10] 71% | viability, T/C [11] 87.9% | viability, T/C [12] 79.1% | viability, T/C [13] 72.5% | viability, T/C [14] 78.4% | viability, T/C [15] 51.4% | viability, T/C [16] 74.7% | viability, T/C [17] 77.5% | viability, T/C [18] 69.9% | viability, T/C [19] 62.1% | viability, T/C [20] 57.7% | viability, T/C [21] 57.8% | viability, T/C [22] 56.9% | viability, T/C [23] 83% | viability, T/C [24] 60.7% | viability, T/C [25] 38.8% | viability, T/C [26] 47% | viability, T/C [27] 54.8% | viability, T/C [28] 51.2% | viability, T/C [29] 67.8% | viability, T/C [30] 50.9% | viability, T/C [31] 32.1% | viability, T/C [32] 40% | viability, T/C [33] 46.6% | viability, T/C [34] 47.1% | viability, T/C [35] 59.5% | viability, T/C [36] 42.5%
> 10 µM: IC50 (second compound 0.0316 µM) | IC50 (second compound 0.1 µM) | IC50 (second compound 0.316 µM) | IC50 (second compound 1 µM)
< 0.0316 µM: IC50 (second compound 3.16 µM) | IC50 (second compound 10 µM)
